# Reference: PMC11444331 (Journal of medicinal chemistry, 2024)
# Bridge positions count the residues as written; N and C are the ends. Peptide text beside a SMILES is read from it.
# Legend:
# [1] = target: human α7 nAChRs (Homo sapiens, UniProt P36544); test: cell-based
# [2] = target: human α9α10 nAChRs (Homo sapiens, UniProt Q9GZZ6+Q9UGM1); test: cell-based
# Sequence of human α9α10 nAChRs (Q9UGM1 26-479 limits assumed): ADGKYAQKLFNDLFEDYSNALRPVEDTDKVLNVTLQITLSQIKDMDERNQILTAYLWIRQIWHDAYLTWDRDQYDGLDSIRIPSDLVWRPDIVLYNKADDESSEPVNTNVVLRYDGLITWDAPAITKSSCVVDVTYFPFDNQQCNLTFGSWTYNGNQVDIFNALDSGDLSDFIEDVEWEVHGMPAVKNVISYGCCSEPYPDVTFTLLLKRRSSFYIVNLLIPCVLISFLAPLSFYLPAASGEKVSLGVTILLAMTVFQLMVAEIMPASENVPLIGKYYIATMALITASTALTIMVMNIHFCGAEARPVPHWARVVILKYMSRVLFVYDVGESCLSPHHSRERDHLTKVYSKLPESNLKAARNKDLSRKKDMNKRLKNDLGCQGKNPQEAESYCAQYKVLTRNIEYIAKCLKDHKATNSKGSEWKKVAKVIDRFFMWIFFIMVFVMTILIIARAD
# Sequence of human α9α10 nAChRs (Q9GZZ6 25-450 limits assumed): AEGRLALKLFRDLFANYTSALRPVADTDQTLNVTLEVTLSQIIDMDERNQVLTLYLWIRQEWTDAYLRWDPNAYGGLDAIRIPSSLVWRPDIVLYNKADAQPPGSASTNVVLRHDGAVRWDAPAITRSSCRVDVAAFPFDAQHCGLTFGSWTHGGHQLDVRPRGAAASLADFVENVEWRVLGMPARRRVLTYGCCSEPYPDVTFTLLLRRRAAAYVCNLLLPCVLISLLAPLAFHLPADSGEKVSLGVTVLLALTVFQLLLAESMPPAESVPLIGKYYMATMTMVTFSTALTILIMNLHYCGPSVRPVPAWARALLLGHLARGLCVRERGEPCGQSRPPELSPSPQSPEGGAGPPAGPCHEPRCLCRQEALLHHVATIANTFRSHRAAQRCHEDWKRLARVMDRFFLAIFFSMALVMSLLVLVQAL
# Sequence of human α7 nAChRs (P36544 23-502 limits assumed): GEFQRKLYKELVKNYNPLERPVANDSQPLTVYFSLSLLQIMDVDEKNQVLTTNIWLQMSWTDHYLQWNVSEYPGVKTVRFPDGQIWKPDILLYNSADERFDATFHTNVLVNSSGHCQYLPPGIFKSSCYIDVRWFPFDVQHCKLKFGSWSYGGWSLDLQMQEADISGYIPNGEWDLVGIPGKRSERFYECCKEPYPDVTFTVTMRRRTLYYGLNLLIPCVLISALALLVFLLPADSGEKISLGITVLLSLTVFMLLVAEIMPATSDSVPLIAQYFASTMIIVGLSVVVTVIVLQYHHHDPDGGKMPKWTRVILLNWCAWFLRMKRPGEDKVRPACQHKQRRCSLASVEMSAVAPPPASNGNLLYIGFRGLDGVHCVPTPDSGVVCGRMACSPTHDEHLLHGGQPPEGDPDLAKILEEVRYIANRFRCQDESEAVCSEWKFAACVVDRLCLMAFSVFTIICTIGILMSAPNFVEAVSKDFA
smiles,measurement,setting,value
"C[C@@H]1NC(=O)[C@H](CCCNC(=N)N)NC(=O)[C@H](CO)NC(=O)[C@H](CCCNC(=N)N)NC(=O)[C@H](CO)NC(=O)[C@@H]2CSSC[C@H](NC(=O)CN)C(=O)N[C@@H](CSSC[C@@H](C(N)=O)NC(=O)[C@H](CO)NC(=O)[C@H](CO)NC1=O)C(=O)N[C@@H](CO)C(=O)N[C@@H](Cc1c[nH]cn1)C(=O)N1CCC[C@H]1C(=O)N[C@@H](C)C(=O)N2 [conofurin-Delta-SRSRASS] (H-GCCSHPACSRSRASSC-NH2; disulfide 2-8, 3-16)",IC50,[1],5.4 µM
same,IC50,[2],> 10 µM
